Experimental data taken from patent US6362134B1, “Herbicidal 1,2,4,6-thiatriazines” (Syngenta Investment Corporation, priority 1996, dated 2002).

What was measured:
[1] = Stability of the isolated compound when left to stand; format: physicochemical; details: isolated product
Protocol: 4.09 g (0.02 mol) of 1,3,5-trichlorothiatriazine are stirred as a suspension in 50 ml of carbon tetrachloride at −25° C., and a solution of 0.70 g (0.022 mol) of methanol in a little carbon tetrachloride is added dropwise. During this operation, the trichlorothiatriazine dissolves apart from a little insoluble product. The mixture is then warmed to 0° C. and filtered and the filtrate is concentrated on a rotary evaporator at a maximum of 50° C. 3.25 g of the desired product, which, according to the ^13C-NMR spectrum and thin layer chromatogram (silica gel; eluting agent ethyl acetate/hexane 1/3), contains practically no further impurities, are obtained as the residue.

Avena = experiment: Herbicidal action before emergence of the plants (pre-emergent action); format: in vivo; details: 2000 g of active substance/ha, sprayed immediately after sowing, evaluated after 3 weeks, ratings scale of nine levels (1=complete damage, 9=no action)
Protocol: (§1) Monocotyledon and dicotyledon test plants are sown in standard soil in plastic pots. Immediately after sowing, the test substances are sprayed on (500 l of water/ha) in an aqueous suspension prepared from a 25% wettable powder (Example F3, b)), corresponding to a dosage of 2000 g of active substance/ha. The test plants are then grown under optimum conditions in a greenhouse. After a test period of 3 weeks, the test is evaluated with a ratings scale of nine levels (1=complete damage, 9=no action). Ratings of 1 to 4 (in particular 1 to 3) mean a good to very good herbicidal action.
(§2) Test plants: Avena, Setaria, Sinapis, Stellaria

Sinapis [2] = experiment: Post-emergent herbicidal action (contact herbicide); format: in vivo; set-up: key: 1=complete damage; 9=no action; Ratings of 1 to 4 (in particular 1 to 3) mean a good to very good herbicidal action; details: 2000 g of active substance/ha, sprayed in the 4- to 6-leaf stage, evaluated after about 18 days, ratings scale 1-9
Protocol: (§3) Monocotyledon and dicotyledon test plants are grown in plastic pots with standard soil in a greenhouse and, in the 4- to 6-leaf stage, are sprayed with an aqueous suspension of the test substances of the formula 1, prepared from a 25% wettable power (Example F3, b)), corresponding to a dosage of 2000 g of active substance/ha (500 l of water/ha). The test plants are then grown further in the greenhouse under optimum conditions. After a test period of about 18 days, the test is evaluated with a ratings scale of 9 levels (1=complete damage, 9=no action). Ratings of 1 to 4 (in particular 1 to 3) mean a good to very good herbicidal action.
(§4) Test plants: Sinapis, Stellaria

Stellaria [3] = experiment: as above; format: in vivo; set-up: key: 1=complete damage; 9=no action; Ratings of 1 to 4 (in particular 1 to 3) mean a good to very good herbicidal action; details: 2000 g of active substance/ha, sprayed in the 4- to 6-leaf stage, evaluated after about 18 days, ratings scale 1-9
Protocol: as §3, §4

Sinapis [4] = experiment: Herbicidal action before emergence of the plants (pre-emergent action); format: in vivo; set-up: key: 1=complete damage; 9=no action; Ratings of 1 to 4 (in particular 1 to 3) mean a good to very good herbicidal action; details: 2000 g of active substance/ha, sprayed immediately after sowing, evaluated after 3 weeks, ratings scale of nine levels
Protocol: as §1, §2

Stellaria [5] = experiment: as above; format: in vivo; set-up: key: 1=complete damage; 9=no action; Ratings of 1 to 4 (in particular 1 to 3) mean a good to very good herbicidal action; details: 2000 g of active substance/ha, sprayed immediately after sowing, evaluated after 3 weeks, ratings scale of nine levels
Protocol: as §1, §2

Setaria = experiment: as above; format: in vivo; set-up: key: 1=complete damage; 9=no action; Ratings of 1 to 4 (in particular 1 to 3) mean a good to very good herbicidal action; details: 2000 g of active substance/ha, sprayed immediately after sowing, evaluated after 3 weeks, ratings scale of nine levels
Protocol: as §1, §2

Row | melting point [°C] | SMILES | stability when left to stand [1] | Pre-emergent action, rating, Avena (Avena) | Post-emergent action, rating, Sinapis (Sinapis [2]) | Post-emergent action, rating, Stellaria (Stellaria [3]) | Pre-emergent action, rating, Sinapis (Sinapis [4]) | Pre-emergent action, rating, Stellaria (Stellaria [5]) | Pre-emergent action, rating, Setaria (Setaria)
1 |  | COS1=NC(Cl)=NC(Cl)=N1 (stereo not shown) [Example H3, 1-methoxy-3,5-dichlorothiatriazine] | unstable and decomposes within a few hours when left to stand |  |  |  |  |  | 
2 | 184 to 185 | CCCN(CCC)S1=NC(N)=NC(Oc2cc(F)ccc2F)=N1 (stereo not shown) [Example H17, 3-amino-1-dipropylamino-5-(2′,5′-difluorophenoxy)thiatriazine] |  |  |  |  |  |  | 
3 | 75 to 76 | COC1=NS(OC)=NC(Oc2cc(F)ccc2F)=N1 (stereo not shown) [Example H10, 1,3-dimethoxy-5-(2′,5′-di-fluorophenoxy)thiatriazine] |  |  |  |  |  |  | 
4 |  | CC(OS1=NC(N)=NC(Oc2c(F)c(F)c(F)c(F)c2F)=N1)[Si](C)(C)C (stereo not shown) [5.329] |  | 2 | 1 | 5 | 1 | 1 | 1
5 |  | NC1=NS(N2CCc3ccccc3C2)=NC(Oc2c(F)c(F)c(F)c(F)c2F)=N1 (stereo not shown) [6.145] |  | 4 | 3 | 3 | 1 | 1 | 2
6 |  | CC1CCC(OS2=NC(N)=NC(Oc3c(F)c(F)c(F)c(F)c3F)=N2)CC1 (stereo not shown) [5.326] |  | 4 | 2 | 4 | 1 | 1 | 4
7 | 163 to 164 | CC(C)OS1=NC(N)=NC(Oc2cc(F)ccc2F)=N1 (stereo not shown) [Example H14, 3-amino-1-isopropoxy-5-(2′,5′-difluorophenoxy)thiatriazine] |  |  |  |  |  |  | 
8 |  | CN(Cc1ccc(Cl)nc1)S1=NC(N)=NC(Oc2c(F)c(F)c(F)c(F)c2F)=N1 (stereo not shown) [6.170] |  | 3 | 2 | 3 | 4 | 1 | 4
9 |  | CC1(C)CCC(OS2=NC(N)=NC(Oc3c(F)c(F)c(F)c(F)c3F)=N2)CC1 (stereo not shown) [5.52] |  | 4 | 2 | 2 | 1 | 1 | 2
10 |  | NC1=NS(N2CCc3ccccc3C2)=NC(Oc2c(F)c(F)cc(F)c2F)=N1 (stereo not shown) [6.173] |  | 4 | 2 | 3 | 1 | 1 | 3
11 |  | CC1CC2CCCCC2N(S2=NC(N)=NC(Oc3c(F)c(F)c(F)c(F)c3F)=N2)C1 (stereo not shown) [6.292] |  | 5 | 2 | 3 | 1 | 1 | 1
12 |  | NC1=NS(N2CC3CCCC2CC3)=NC(Oc2c(F)c(F)c(F)c(F)c2F)=N1 (stereo not shown) [6.185] |  | 4 | 1 | 1 | 1 | 1 | 4
13 |  | NC1=NS(N2CCCCCC2)=NC(Oc2c(F)c(F)cc(F)c2F)=N1 (stereo not shown) [6.89] |  | 2 | 2 | 3 | 1 | 1 | 2
14 |  | CC1CN(S2=NC(N)=NC(Oc3c(F)c(F)c(F)c(F)c3F)=N2)C2CCCCC12 (stereo not shown) [6.295] |  | 3 | 1 | 3 | 1 | 1 | 1
15 |  | CC1CC2CCCCC2N1S1=NC(N)=NC(Oc2c(F)c(F)c(F)c(F)c2F)=N1 (stereo not shown) [6.282] |  | 4 | 1 | 5 | 1 | 1 | 2
